Earlier results as cited in patent US6709866B2, “Methods for enhancing survival of a neuron” (Aegera Therapeutics, Inc., priority 1996, dated 2004).

How the values were obtained:
[1] = tested on: primary hippocampal, cortical and septal cultures; details: Cheng et al. 1994
motoneurons = details: literature
hippocampal cultures = details: 100 pM

In the case of O=c1c(-c2ccc(O)cc2)coc2cc(O)cc(O)c12 [genistein], the “effect on the neuroprotective effects of K252-like compounds” value [1] is given as “blocked”.
In the case of CCSCc1ccc2c(c1)c1c3c(c4c5cc(CSCC)ccc5n5c4c1n2[C@H]1C[C@](O)(C(=O)OC)[C@]5(C)O1)CNC3=O [CEP1347], the “motoneuron death and loss of ChAT in vivo” value (motoneurons) is given as “prevents developmentally programmed motoneuron death and loss of ChAT in adult motoneurons”.
For C[C@]12O[C@H](C[C@]1(O)C(=O)O)n1c3ccccc3c3c4c(c5c6ccccc6n2c5c31)CNC4=O [K252b], the “tyrosine phosphorylation of multiple proteins (40 to 200 kDa)” value (hippocampal cultures) is listed as “enhance tyrosine phosphorylation”.
